Laboratory results reported in patent publication US12594267B2, “Capsid inhibitors for the treatment of HIV” (Gilead Sciences, Inc., priority 2018, dated 2026).
Read-outs that look alike come from different tables or passages of the source.

Assay: PK after subcutaneous administration of solutions in rats
Type: in vivo, Wistar Han rat
Conditions: for Plasma concentration: 0 h
Experimental: Formulations containing the compound of Formula (Ia) were prepared as aqueous solutions or oral formulations and administered subcutaneously to rats, dogs, cynomolgus monkey, and/or rhesus monkey.
A solution of the compound of Formula (Ia) in 10% ethanol, 13% water, and 77% PEG 200 (400 mg/mL) was prepared. The solution was administered subcutaneously to dogs at a dose of 12 mg/kg and rats at a dose of 50 mg/kg and the pharmacokinetic (PK) profile was determined. […] In both species, plasma concentrations of the compound of Formula (Ia) were maintained above the target trough concentration of 20 nM (corresponding to an IQ of 5) for at least 84 days (12 weeks).
A solution of the free acid of the compound of Formula (Ia) in 15% water and 85% PEG 300 (300 mg/mL) was prepared. The solution was administered subcutaneously to male Wistar Han rats at a dose level of 50 mg/kg and dose volume of 0.167 mL/kg and the pharmacokinetic (PK) profile was determined.
A 300 mg/ml solution of a compound of Formula (Ia) having 9.8 w/w % water, 65.0 w/w % PEG 300, and 25.2 w/w % of the compound of Formula (Ia) was prepared. The solution was administered subcutaneously to rats at a dose of 50 mg/kg and to dogs at a dose of 12 mg/kg and the pharmacokinetic (PK) profile was determined. […] In the rat, plasma concentrations of the compound of Formula (Ia) were maintained above the target trough concentration of 20 nM for at least 168 days (24 weeks). In the dog, plasma concentrations of the compound of Formula (Ia) were maintained above the target trough concentration of 20 nM for at least 84 days (12 weeks).
(§1) A 150 mg/ml solution of a compound of Formula (Ia) having 27.92 w/w % water, 58.04 w/w % PEG 300, 13.47 w/w % of a compound of Formula (Ia), and 1.1 w/w % NaOH was prepared. The solution was administered subcutaneously to rats at a dose of 50 mg/kg and to dogs at a dose of 12 mg/kg and the pharmacokinetic (PK) profile was determined. […] In the rat, plasma concentrations of the compound of Formula (Ia) were maintained above the target trough concentration of 20 nM for at least 126 days (18 weeks). In the dog, plasma concentrations of the compound of Formula (Ia) were maintained above the target trough concentration of 20 nM for at least 56 days (8 weeks).
as §1, with “300” for “150”, “23.2” for “27.92”, “50.0” for “58.04”, “25.7” for “13.47”
A 50 mg/ml solution of a compound of Formula (Ia) having 30.07 w/w % water, 64.40 w/w % PEG 300, 4.68 w/w % of a sodium salt of the compound of Formula (Ia), and 0.85 w/w % poloxamer 188 was prepared. The solution was administered subcutaneously to rats at a dose of 50 mg/kg and to dogs at a dose of 6 mg/kg and the pharmacokinetic (PK) profile was determined. […] In the rat, plasma concentrations of the compound of Formula (Ia) were maintained above the target trough concentration of 20 nM for at least 28 days (4 weeks). In the dog, plasma concentrations of the compound of Formula (Ia) were maintained above the target trough concentration of 20 nM for at least 14 days (2 weeks).
A 75 mg/ml solution of a compound of Formula (Ia) having 29.21 w/w % water, 62.55 w/w % PEG 300, 6.97 w/w % of a sodium salt of the compound of Formula (Ia), and 1.68 w/w % poloxamer 188 was prepared. The solution was administered subcutaneously to rats at a dose of 50 mg/kg and to dogs at a dose of 6 mg/kg and the pharmacokinetic (PK) profile was determined. […]

[1] = male, Wistar Han, rat, plasma, sc, 50 mg/kg, rat #3, SC 50 mg/kg, 300 mg/mL in 15% water/85% PEG 300
[2] = male, Wistar Han, rat, plasma, sc, 50 mg/kg, rat mean, n=3, SC 50 mg/kg, 300 mg/mL in 15% water/85% PEG 300
[3] = rat, SC 50 mg/kg, 75 mg/mL solution (w/w %: 29.21 water, 62.55 PEG 300, 6.97 sodium salt of Formula (Ia), 1.68 poloxamer 188), mean ± SD, n=3
[4] = rat, SC 50 mg/kg, 125 mg/mL solution (w/w %: 27.51 water, 58.92 PEG 300, 11.48 sodium salt of Formula (Ia), 2.09 poloxamer 188), mean ± SD, n=3
[5] = rat, SC 50 mg/kg, 150 mg/mL solution (w/w %: 26.6 water, 56.97 PEG 300, 13.39 Formula (Ia), 0.57 NaOH, 2.49 poloxamer 188), mean ± SD, n=3
[6] = rat, SC 50 mg/kg, 300 mg/mL solution (w/w %: 9.8 water, 65.0 PEG 300, 25.2 Formula (Ia)), mean ± SD, n=3
[7] = rat, SC 50 mg/kg, 300 mg/mL solution (w/w %: 21.97 water, 47.05 PEG 300, 25.21 Formula (Ia), 1.08 NaOH, 4.69 poloxamer 188), mean ± SD, n=3

CC(C)(C#Cc1ccc(-c2ccc(Cl)c3c(NS(C)(=O)=O)nn(CC(F)(F)F)c23)c([C@H](Cc2cc(F)cc(F)c2)NC(=O)Cn2nc(C(F)(F)F)c3c2C(F)(F)[C@@H]2C[C@H]32)n1)S(C)(=O)=O [Formula (Ia), N—((S)-1-(3-(4-chloro-3-(methylsulfonamido)-1-(2,2,2-trifluoroethyl)-1H-indazol-7-yl)-6-(3-methyl-3-(methylsulfonyl)but-1-yn-1-yl)pyridin-2-yl)-2-(3,5-difluorophenyl)ethyl)-2-((3bS,4aR)-5,5-difluoro-3-(trifluoromethyl)-3b,4,4a,5-tetrahydro-1H-cyclopropa[3,4]cyclopenta[1,2-c]pyrazol-1-yl)acetamide]
concentration at 96 h [1]: 85.2 nM | concentration at 168 h [1]: 137 nM | concentration at 336 h [1]: 284 nM | concentration at 504 h [1]: 281 nM | concentration at 672 h [1]: 304 nM | concentration at 840 h [1]: 302 nM | concentration at 1008 h [1]: 289 nM | concentration at 1344 h [1]: 278 nM | concentration at 1680 h [1]: 200 nM | concentration at 1 h (male, Wistar Han, rat, plasma, sc, 50 mg/kg, rat mean, n=3, 1 h, SC 50 mg/kg, 300 mg/mL in 15% water/85% PEG 300): 8.6 nM | concentration at 3 h (male, Wistar Han, rat, plasma, sc, 50 mg/kg, rat mean, n=3, 3 h, SC 50 mg/kg, 300 mg/mL in 15% water/85% PEG 300): 21.5 nM | concentration at 8 h (male, Wistar Han, rat, plasma, sc, 50 mg/kg, rat mean, n=3, 8 h, SC 50 mg/kg, 300 mg/mL in 15% water/85% PEG 300): 32.2 nM | concentration at 24 h (male, Wistar Han, rat, plasma, sc, 50 mg/kg, rat mean, n=3, 24 h, SC 50 mg/kg, 300 mg/mL in 15% water/85% PEG 300): 48.2 nM | concentration at 48 h (male, Wistar Han, rat, plasma, sc, 50 mg/kg, rat mean, n=3, 48 h, SC 50 mg/kg, 300 mg/mL in 15% water/85% PEG 300): 70.6 nM | concentration at 72 h (male, Wistar Han, rat, plasma, sc, 50 mg/kg, rat mean, n=3, 72 h, SC 50 mg/kg, 300 mg/mL in 15% water/85% PEG 300): 67.5 nM | concentration at 96 h [2]: 75.8 nM | concentration at 168 h [2]: 137 nM | concentration at 336 h [2]: 272 nM | concentration at 504 h [2]: 292 nM | concentration at 672 h [2]: 312 nM | concentration at 840 h [2]: 313 nM | concentration at 1008 h [2]: 282 nM | concentration at 1344 h [2]: 253 nM | concentration at 1680 h [2]: 189 nM | AUC(0-t) (male, Wistar Han, rat, plasma, sc, 50 mg/kg, rat, single SC 50 mg/kg, 300 mg/mL free acid in 85:15 w/w PEG 300:water, mean ± SD, n=3, read-out: AUC0-168h): 13.3 ± 0.3 µM·h | AUC(0-t) (male, Wistar Han, rat, plasma, sc, 50 mg/kg, rat, single SC 50 mg/kg, 300 mg/mL free acid in 85:15 w/w PEG 300:water, mean ± SD, n=3, read-out: AUC0-336h): 47.6 ± 1.2 µM·h | AUC(0-t) (male, Wistar Han, rat, plasma, sc, 50 mg/kg, rat, single SC 50 mg/kg, 300 mg/mL free acid in 85:15 w/w PEG 300:water, mean ± SD, n=3, read-out: AUC0-672h): 146 ± 6 µM·h | Plasma concentration (rat #1, SC 50 mg/kg, 300 mg/mL in 15% water/85% PEG 300): BLQ | Plasma concentration (rat #2, SC 50 mg/kg, 300 mg/mL in 15% water/85% PEG 300): BLQ | Plasma concentration (rat #3, SC 50 mg/kg, 300 mg/mL in 15% water/85% PEG 300): BLQ | Time plasma concentrations maintained above the target trough concentration of 20 nM (rat, SC 50 mg/kg, 50 mg/mL solution (w/w %: 30.07 water, 64.40 PEG 300, 4.68 sodium salt of Formula (Ia), 0.85 poloxamer 188)): at least 28 days | AUC0-28d (rat, SC 50 mg/kg, 50 mg/mL solution (w/w %: 30.07 water, 64.40 PEG 300, 4.68 sodium salt of Formula (Ia), 0.85 poloxamer 188), mean ± SD, n=3): 643 ± 75 µM·h | Time plasma concentrations maintained above the target trough concentration of 20 nM (rat, SC 50 mg/kg, 75 mg/mL solution (w/w %: 29.21 water, 62.55 PEG 300, 6.97 sodium salt of Formula (Ia), 1.68 poloxamer 188)): at least 42 days | AUC0-7d [3]: 241 ± 22 µM·h | AUC0-28d [3]: 690 ± 32 µM·h | Time plasma concentrations maintained above the target trough concentration of 20 nM (rat, SC 50 mg/kg, 100 mg/mL solution (w/w %: 28.36 water, 60.73 PEG 300, 9.23 sodium salt of Formula (Ia), 1.68 poloxamer 188)): at least 28 days | AUC0-28d (rat, SC 50 mg/kg, 100 mg/mL solution (w/w %: 28.36 water, 60.73 PEG 300, 9.23 sodium salt of Formula (Ia), 1.68 poloxamer 188), mean ± SD, n=3): 716 ± 62 µM·h | Time plasma concentrations maintained above the target trough concentration of 20 nM (rat, SC 50 mg/kg, 125 mg/mL solution (w/w %: 27.51 water, 58.92 PEG 300, 11.48 sodium salt of Formula (Ia), 2.09 poloxamer 188)): at least 28 days | AUC0-7d [4]: 153 ± 38 µM·h | AUC0-28d [4]: 673 ± 67 µM·h | Time plasma concentrations maintained above the target trough concentration of 20 nM (rat, SC 50 mg/kg, 150 mg/mL solution (w/w %: 26.6 water, 56.97 PEG 300, 13.39 Formula (Ia), 0.57 NaOH, 2.49 poloxamer 188)): at least 98 days | AUC0-98d [5]: 949 ± 114 µM·h | AUC0-112d [5]: 963 ± 102 µM·h | Time plasma concentrations maintained above the target trough concentration of 20 nM (rat, SC 50 mg/kg, 150 mg/mL solution (w/w %: 27.92 water, 58.04 PEG 300, 13.47 Formula (Ia), 1.1 NaOH)): at least 126 days | AUC0-98d (rat, SC 50 mg/kg, 150 mg/mL solution (w/w %: 27.92 water, 58.04 PEG 300, 13.47 Formula (Ia), 1.1 NaOH), mean ± SD, n=3): 801 ± 119 µM·h | Time plasma concentrations maintained above the target trough concentration of 20 nM (rat, SC 50 mg/kg, 300 mg/mL solution (w/w %: 9.8 water, 65.0 PEG 300, 25.2 Formula (Ia))): at least 168 days | AUC0-98d [6]: 531 ± 30 µM·h | AUC0-168d [6]: 730 ± 55 µM·h | Time plasma concentrations maintained above the target trough concentration of 20 nM (rat, SC 50 mg/kg, 300 mg/mL solution (w/w %: 21.97 water, 47.05 PEG 300, 25.21 Formula (Ia), 1.08 NaOH, 4.69 poloxamer 188)): at least 98 days | AUC0-98d [7]: 928 ± 175 µM·h | AUC0-140d [7]: 948 ± 169 µM·h | Time plasma concentrations maintained above the target trough concentration of 20 nM (rat, SC 50 mg/kg, 300 mg/mL solution (w/w %: 23.2 water, 50.0 PEG 300, 25.7 Formula (Ia), 1.1 NaOH)): at least 126 days | AUC0-126d (rat, SC 50 mg/kg, 300 mg/mL solution (w/w %: 23.2 water, 50.0 PEG 300, 25.7 Formula (Ia), 1.1 NaOH), mean ± SD, n=3): 698 ± 13 µM·h | Time plasma concentrations maintained above the target trough concentration of 20 nM (rat, SC 50 mg/kg, 400 mg/mL solution in 10% ethanol, 13% water, 77% PEG 200): at least 84 days | AUC0-84d (rat, SC 50 mg/kg, 400 mg/mL solution in 10% ethanol, 13% water, 77% PEG 200, mean ± SD, n=3): 404 ± 139 µM·h | AUC0-1680h (rat, single SC 50 mg/kg, 300 mg/mL free acid in 85:15 w/w PEG 300:water, mean ± SD, n=3): 412 ± 21 µM·h
